Assay results: US6794544B2, “Method for the preparation of tetrahydrobenzothiepines” (Pharmacia Corporation, priority 2000, dated 2004)

Experiment: Water uptake experiments (Dynamic Vapor Sorption, water sorption/desorption isotherms)
Assay type: physicochemical
Description: A dry sample of the crystalline form having a melting point or a decomposition point of about 278° C. to about 285° C. (i.e., Form 11) typically gains less than about 1% of its own weight when equilibrated under 80% relative humidity (RH) air at 25° C. […] For the present purposes, the term “essentially 0% RH” means less than about 1% RH. The term “equilibrated” means that the change in weight of a sample over time at a given relative humidity is less than 0.0003% ((dm/dt)/m0×100, where m is mass in mg, m0 is initial mass, and t is time in minutes).
Water sorption experiments are performed on a Dynamic Vapor Sorption (DVS) apparatus (DVS-1000 manufactured by Surface Measurements Systems, Inc.). Experiments are performed at 25° C. by initially drying the material of interest (about 10 mg sample) from 30% relative humidity (RH) (ambient room condition) to about 9% RH in a stepwise fashion (10% RH step) by purging with dry nitrogen until no further weight change was observed. The samples are then exposed to a stepwise (10% RH steps) increase in RH from about 0 to about 90% RH. Each successive step is initiated when the change in weight over time at the relative humidity was less than 0.0003% ((dm/dt)/m0×100, where m is mass in mg, m0 is initial mass, and t is time in minutes). […] The data are collected on a computer and analyzed using SMS′ proprietary MS-Excel macro interface software.

weight gain of the sample (of its own weight) (dried at essentially 0% RH at about 25° C. under dry nitrogen, then equilibrated under about 80% RH air at about 25° C.): less than 1%
hygroscopicity (dry sample equilibrated under 80% RH air at 25° C.): essentially nonhygroscopic
Structure (SMILES): CCCCC1(CCCC)CS(=O)(=O)c2ccc(N(C)C)cc2[C@@H](c2ccc(OCc3ccc(C[N+]45CCN(CC4)CC5)cc3)cc2)[C@H]1O [Form II, (4R,5R)-1-((4-(4-(3,3-dibutyl-7-(dimethylamino)-2,3,4,5-tetrahydro-4-hydroxy-1,1-dioxido-1-benzithiepin-5-yl)phenoxy)methyl)phenyl)methyl-4-aza-1-azoniabicyclo[2.2.2]octane chloride]
